# Source: ChEMBL document CHEMBL5316350, “Novel Pyrido[2',1':2,3]imidazo[4,5-c]quinoline Derivative Selectively Poisons Leishmania donovani Bisubunit Topoisomerase 1 to Inhibit the Antimony-Resistant Leishmania Infection in Vivo” (J Med Chem, 2023)
# pEC50: −log10 of the molar value. The source made the active and inactive calls. The calls are words filed in the database; no cut-off is given here.
# Assays:
# Leishmania donovani [1] = test: Induction of apoptosis in Leishmania donovani Ag83 promastigotes assessed as early apoptotic cells measured at 5 uM after 24 hrs by Annexin V-FITC/PI staining based flow cytometric analysis (reference value: 0.00%); format: functional
# Leishmania donovani [2] = test: Induction of apoptosis in Leishmania donovani Ag83 promastigotes assessed as necrotic cells measured at 5 uM after 24 hrs by Annexin V-FITC/PI staining based flow cytometric analysis (reference value: 0.5%); format: functional
# Leishmania donovani [3] = test: Induction of cell cycle arrest in Leishmania donovani Ag83 promastigotes assessed as decrease in accumulation of cells in S phase at 5 uM measured after 24 hrs by PI staining based flow cytometry (reference value: 18.1%); format: functional; parameters: scale not given: the % may be the effect or the level left
# MCF7 [4] = test: Induction of apoptosis in human MCF7 cells measured at 5 uM upto 24 hrs by Annexin V-FITC/PI staining based flow cytometric analysis; format: functional, cell-based
# Leishmania donovani [5] = test: Induction of cell cycle arrest in antimony resistant Leishmania donovani BHU575 promastigotes assessed as decrease in accumulation of cells in G0/G1 phase at 5 uM measured after 12 hrs by PI staining based flow cytometry (reference value: 80.7%); format: functional; parameters: scale not given: the % may be the effect or the level left
# Leishmania donovani [6] = test: (§1) Antileishmanial activity against Leishmania donovani Ag83 promastigotes infected in BALB/c mouse model of visceral leishmaniasis assessed as fold change in T-helper type 1 immunological evoke response in splenocytes by measuring increase in TNF alpha cytokine level treated after 3 weeks of infection at 5 to 10 mg/kg, ip twice a week for 3 weeks by RT-PCR analysis; format: functional; conditions: dose 5-10 mg/kg
# Leishmania donovani [7] = test: as §1, with “increased IFN-gamma” for “increase in TNF alpha”, “at” for “at 5 to”; format: functional
# MCF7 [8] = test: Potency index ratio of test compound IC50 to camptothecin IC50 for cytotoxicity against human MCF7 cells; format: functional
# Leishmania donovani [9] = test: Induction of cell cycle arrest in antimony resistant Leishmania donovani BHU575 promastigotes assessed as decrease in accumulation of cells in G2/M phase at 5 uM measured after 12 hrs by PI staining based flow cytometry (reference value: 8.8%); format: functional; parameters: scale not given: the % may be the effect or the level left
# Leishmania donovani [10] = test: Induction of cell cycle arrest in antimony resistant Leishmania donovani BHU575 promastigotes assessed as decrease in accumulation of cells in G0/G1 phase at 5 uM measured after 6 hrs by PI staining based flow cytometry (reference value: 80.7%); format: functional; parameters: scale not given: the % may be the effect or the level left
# Leishmania donovani [11] = test: Induction of cell cycle arrest in Leishmania donovani Ag83 promastigotes assessed as decrease in accumulation of cells in G0/G1 phase at 5 uM measured after 24 hrs by PI staining based flow cytometry (reference value: 65.1%); format: functional; parameters: scale not given: the % may be the effect or the level left
# Leishmania donovani [12] = test: Induction of cell cycle arrest in Leishmania donovani Ag83 promastigotes assessed as accumulation of cells in S/G2 phase at 5 uM by PI staining based flow cytometry; format: functional, organism-based; conditions: time 6-24 hrs
# Leishmania donovani [13] = test: as §1, with “as” for “as fold change in”, “type 2” for “type 1”, “measuring decrease” for “measuring increase”, “in IL-4” for “in TNF alpha cytokine”; format: functional, organism-based; conditions: dose 5-10 mg/kg
# Leishmania donovani [14] = test: Induction of cell cycle arrest in antimony resistant Leishmania donovani BHU575 promastigotes assessed as decrease in accumulation of cells in G2/M phase at 5 uM measured after 24 hrs by PI staining based flow cytometry (reference value: 8.8%); format: functional; parameters: scale not given: the % may be the effect or the level left
# Leishmania donovani [15] = test: Stabilization of Leishmania donovani promastigotes Top1-DNA complex assessed as formation of SDS-KCl precipitable complex incubated for 110 mins by anti-BrdU staining based spectrophotometric analysis
# Leishmania donovani [16] = test: Induction of apoptosis in Leishmania donovani Ag83 promastigotes assessed as increase in apoptotic genomic DNA fragmentation measured at 5 uM after 6 hrs by Annexin V-FITC/PI staining based flow cytometric analysis; format: functional, organism-based
# Leishmania donovani [17] = test: Induction of apoptosis in Leishmania donovani Ag83 promastigotes assessed as viable cells measured at 5 uM after 6 hrs by Annexin V-FITC/PI staining based flow cytometric analysis (reference value: 99.4%); format: functional
# Leishmania donovani [18] = test: Induction of apoptosis in Leishmania donovani Ag83 promastigotes assessed as early apoptotic cells measured at 5 uM after 6 hrs by Annexin V-FITC/PI staining based flow cytometric analysis (reference value: 0.00%); format: functional
# Leishmania donovani [19] = test: Induction of apoptosis in antimony resistant Leishmania donovani BHU575 promastigotes at 5 uM measured after 6 to 24 hrs by FITC-Annexin V-based flow cytometric analysis; format: functional, organism-based; conditions: time 6-24 hrs
# Leishmania donovani [20] = test: Antileishmanial activity in Leishmania donovani Ag83 promastigotes assessed as Top1cc-induced DNA breakdown by measuring TUNEL positive cells by confocal microscopic analysis; format: functional, organism-based; conditions: time 6-12 hrs, TDE = time-dependent effect
# Leishmania donovani [21] = test: (§2) Antileishmanial activity against antimony resistant Leishmania donovani BHU575 promastigotes infected in BALB/c mouse assessed as reduction of amastigote burden by measuring parasite count in spleen treated after 3 weeks of infection at 5 to 10 mg/kg, ip twice a week for 3 weeks by qPCR based kineto-plastid DNA; format: functional, organism-based; conditions: dose 5-10 mg/kg
# Leishmania donovani [22] = test: Antileishmanial activity in Leishmania donovani BHU575 promastigotes assessed as TUNEL positive cells at 5 uM measured after 12 hrs by confocal microscopic analysis relative to control; format: functional
# Leishmania donovani [23] = test: Induction of cell cycle arrest in Leishmania donovani Ag83 promastigotes assessed as decrease in accumulation of cells in G2/M phase at 5 uM measured after 6 hrs by PI staining based flow cytometry (reference value: 15.1 %); format: functional; parameters: scale not given: the % may be the effect or the level left
# Leishmania donovani [24] = test: Induction of apoptosis in […] Leishmania donovani Ag83 promastigotes assessed as DNA break accumulation measured at 5 uM after 15 mins by TUNEL staining based assay; format: functional, organism-based
# Leishmania donovani [25] = test: Antileishmanial activity against antimony resistant Leishmania donovani BHU575 promastigotes infected in BALB/c mouse assessed as reduction of macrophage at 1 to 10 uM infection by propidium iodide staining analysis; format: functional, organism-based; conditions: dose 1-10 µM, time 72-96 hrs, TDE = time-dependent effect
# Leishmania donovani [26] = test: Antileishmanial activity against Leishmania donovani Ag83 promastigotes assessed as cell viability by MTT assay; format: functional, organism-based
# Leishmania donovani [27] = test: as §2, with “blood” for “spleen”; format: functional, organism-based; conditions: dose 5-10 mg/kg
# Leishmania donovani [28] = test: Induction of apoptosis in Leishmania donovani Ag83 promastigotes assessed as increase in apoptotic cells measured at 5 uM after 1.5 hrs by Annexin V-FITC/PI staining based flow cytometric analysis; format: functional, organism-based
# Leishmania donovani [29] = test: Antileishmanial activity against Leishmania donovani Ag83 promastigotes infected in BALB/c mouse assessed as reduction of amastigote burden in spleen treated after 3 weeks of infection at 5 to 10 mg/kg, ip twice a week for 3 weeks by Giemsa staining stamp-smear based limiting dilution assay; format: functional, organism-based; conditions: dose 5-10 mg/kg
# Leishmania donovani [30] = test: Induction of cell cycle arrest in Leishmania donovani Ag83 promastigotes assessed as decrease in accumulation of cells in S phase at 5 uM measured after 6 hrs by PI staining based flow cytometry (reference value: 18.1%); format: functional; parameters: scale not given: the % may be the effect or the level left
# Leishmania donovani [31] = test: Induction of cell cycle arrest in antimony resistant Leishmania donovani BHU575 promastigotes assessed as decrease in accumulation of cells in S phase at 5 uM measured after 6 hrs by PI staining based flow cytometry (reference value: 9.8%); format: functional; parameters: scale not given: the % may be the effect or the level left
smiles,measurement,setting,value
COc1cc(-c2nc3ccccc3c3nc4ccccn4c23)cc(OC)c1OC,Activity,Leishmania donovani [1],4.9%
same,Activity,Leishmania donovani [2],23.1%
same,Activity,Leishmania donovani [3],31.5%
same,Activity,MCF7 [4],inactive
same,Activity,Leishmania donovani [5],46%
same,fold change (FC),Leishmania donovani [6],5
same,fold change (FC),Leishmania donovani [7],5.5
same,Ratio IC50,MCF7 [8],90
same,Activity,Leishmania donovani [9],27.5%
same,Activity,Leishmania donovani [10],70.8%
same,Activity,Leishmania donovani [11],31.5%
same,Activity,Leishmania donovani [12],Dose-Dependent Effect
same,Activity,Leishmania donovani [13],Active
same,Activity,Leishmania donovani [14],33.6%
same,Activity,Leishmania donovani [15],Active
same,Activity,Leishmania donovani [16],Active
same,Activity,Leishmania donovani [17],5%
same,Activity,Leishmania donovani [18],18.7%
same,Activity,Leishmania donovani [19],Active
same,Activity,Leishmania donovani [20],Tde
same,Activity,Leishmania donovani [21],Active
same,Activity,Leishmania donovani [22],60%
same,Activity,Leishmania donovani [23],27.7%
same,Activity,Leishmania donovani [24],inactive
same,Activity,Leishmania donovani [25],Tde
same,pEC50,Leishmania donovani [26],5.64
same,Activity,Leishmania donovani [27],Active
same,Activity,Leishmania donovani [28],Active
same,Activity,Leishmania donovani [29],Active
same,Activity,Leishmania donovani [30],13.6%
same,Activity,Leishmania donovani [31],24.5%
